From patent publication US20190167619A1, “PHARMACEUTICAL FORMULATIONS AND THEIR USE” (SIGNUM BIOSCIENCES, INC., priority 2016, published 2019)

Legend:
[1] = Stability of a formulation comprising the disodium salt after storage at 25° C., HPLC (Example 2); format: physicochemical
Protocol: The stability of a formulation comprising the disodium salt of 4-(((R)-1-carboxy-2-(((2E,6E)-3,7,11-trimethyldodeca-2,6,10-trien-1-yl)thio)ethyl)amino)-4-oxobutanoic acid was determined after storage at 25° C. for a period of 4 months, 6 months, 9 months and 12 months. […]

[2] = Stability of a formulation comprising the disodium salt after storage at 5° C., HPLC (Example 3); format: physicochemical
Protocol: The stability of a formulation comprising the disodium salt of 4-(((R)-1-carboxy-2-(((2E,6E)-3,7,11-trimethyldodeca-2,6,10-trien-1-yl)thio)ethyl)amino)-4-oxobutanoic acid was determined after storage at 5° C. for a period of 1 month, 2 months, 3 months, 6 months, 9 months, 12 months, 18 months, and 24 months. In each case, the percentage of 4-(((R)-1-carboxy-2-(((2E,6E)-3,7,11-trimethyldodeca-2,6,10-trien-1-yl)thio)ethyl)amino)-4-oxobutanoic acid remaining at each time point was determined by use of HPLC. Each of the percentages in the table below are expressed at the weight percentage of the component as compared to the total weight of the composition.

Row | SMILES | % age of sulfoxide of 4-(((R)-1-carboxy-2-(((2E,6E)-3,7,11-trimethyldodeca-2,6,10-trien-1-yl)thio)ethyl)amino)-4-oxobutanoic acid ([1]; Initial) [%] | % age of sulfoxide of 4-(((R)-1-carboxy-2-(((2E,6E)-3,7,11-trimethyldodeca-2,6,10-trien-1-yl)thio)ethyl)amino)-4-oxobutanoic acid ([1]; after 1 month, storage at 25° C.) [%] | % age of sulfoxide of 4-(((R)-1-carboxy-2-(((2E,6E)-3,7,11-trimethyldodeca-2,6,10-trien-1-yl)thio)ethyl)amino)-4-oxobutanoic acid ([1]; after 3 months, storage at 25° C.) [%] | % age of sulfoxide of 4-(((R)-1-carboxy-2-(((2E,6E)-3,7,11-trimethyldodeca-2,6,10-trien-1-yl)thio)ethyl)amino)-4-oxobutanoic acid ([1]; after 6 months, storage at 25° C.) [%] | % age of sulfoxide of 4-(((R)-1-carboxy-2-(((2E,6E)-3,7,11-trimethyldodeca-2,6,10-trien-1-yl)thio)ethyl)amino)-4-oxobutanoic acid ([1]; after 9 months, storage at 25° C.) [%] | weight percentage of the component as compared to the total weight of the composition ([2]; 1 month, storage at 5° C.) [weight percentage] | weight percentage of the component as compared to the total weight of the composition ([2]; 2 months, storage at 5° C.) [weight percentage] | weight percentage of the component as compared to the total weight of the composition ([2]; 3 months, storage at 5° C.) [weight percentage] | weight percentage of the component as compared to the total weight of the composition ([2]; 6 months, storage at 5° C.) [weight percentage] | weight percentage of the component as compared to the total weight of the composition ([2]; 9 months, storage at 5° C.) [weight percentage] | weight percentage of the component as compared to the total weight of the composition ([2]; 12 months, storage at 5° C.) [weight percentage] | weight percentage of the component as compared to the total weight of the composition ([2]; 18 months, storage at 5° C.) [weight percentage] | weight percentage of the component as compared to the total weight of the composition ([2]; 24 months, storage at 5° C.) [weight percentage] | weight percentage of the component as compared to the total weight of the composition ([2]; Initial) [weight percentage]
1 | CC(C)=CCC/C(C)=C/CC/C(C)=C/CSC[C@H](NC(=O)CCC(=O)O)C(=O)O [4-(((R)-1-carboxy-2-(((2E,6E)-3,7,11-trimethyldodeca-2,6,10-trien-1-yl)thio)ethyl)amino)-4-oxobutanoic acid] | 0.037 | 0.031 | 0.113 | 0.053 | 0.134 | – | – | – | – | – | – | – | – | –
2 | CCCOC(=O)c1ccc(O)cc1 [Propylparaben] | – | – | – | – | – | 0.032 | 0.032 | 0.033 | 0.032 | 0.033 | 0.032 | 0.033 | 0.030 | 0.034
3 | COC(=O)c1ccc(O)cc1 [Methylparaben] | – | – | – | – | – | 0.17 | 0.17 | 0.17 | 0.18 | 0.17 | 0.17 | 0.17 | 0.15 | 0.17
